For data set [1], the system named is Vibrio parahaemolyticus CAIM 170. The following applies: V. parahaemolyticus 1×10^6 cfu/mL, after 96 h; dose 5 mg/g of feed; untreated infected about 30%.
The subject of data set [2] is SOD. The following applies: RT q-PCR, treated vs non-treated shrimp; feed 5 mg/g. How it is done:
(§1) Primer design is performed in the online application «primer3plus» (Untergasser, A., Nijveen, H., Rao, W., Bisseling, T., Geurts, R., Leunissen, J. A. M. 2007, Nucleic Acids Research, 35: 71-74) based in the following features: 18-24 nt length; GC content 35-65% product size 80-250 bp; and ≤2 GC clamp (Wang, X. and Seed, B., 2007). The primers are evaluated in the online application «Oligo Evaluator» Sigma Aldrich™ (St' Louis, Mo.) to check thermodynamic characteristics based in self-aligned primer and primer-dimer structures. The primers selected are ≤−2 Kcal/mol and evaluated using an in silico PCR software «Primer Digital» (Kalender et al., 2011). RNA extracts used for the microarray hybridizations are converted to cDNA using promega GoScript™ Reverse Transcription System (Promega Corporation, Madison, Wis., USA) and SsoFast™ EvaGreen® Supermix (Bio-Rad, Hercules, Calif., USA) for RT-qPCR.

Data set [3] concerns Toll-Like Receptor. The following applies: RT q-PCR, treated vs non-treated shrimp; feed 5 mg/g. How it is done:
as §1

For data set [4] the following is noted: commercial diet supplemented 5 mg/g, fed ad libitum up to 28 days.
Data set [5] relates to white shrimp L. vannamei. The following applies: in vivo.

SMILES strings stand for the structures. Values joined by “and” are separate entries in the source; they are usually repeats but may differ in a detail not shown here. Equal entries are not always repeated.

Consider `C[N+](C)(C)CCOB1OB2OB(O1)OB1OB(O2)O1.[Cl-]` [choline/pentaborate complex], for which, in data set [1], the survival was > 80% and 84%. Besides, in data set [2], the “increase of expression of SOD gene” value is given as “more than 200 fold”. Besides, the “increase of expression of Toll-Like Receptor gene” value in data set [3] is reported as “more than 200 fold”. For the same compound, the “increment in mean weight compared with control group” value in data set [4] is 20%. The “toxicity (summary statement)” value in data set [5] is on record as “not toxic”.
